From PMC9007350, “Aurintricarboxylic acid is a canonical disruptor of the TAZ-TEAD transcriptional complex” (PLoS ONE, 2022)
Read-outs that look alike come from different tables or passages of the source.

Tests used:
[1] = biological target: T1, VGLL1-TEAD complex (mouse Vgll1 (26-51) probe, human TEAD4 (217-434)) (Homo sapiens, UniProt Q15561); assay: Vgll1-TEAD fluorescence polarization assay; type: binding; settings: TEAD4 350 nM, Vgll1 probe 25 nM
T1 construct: made in house
Procedure: (§1) Human YAP (61–100), human TAZ (23–57) and mouse Vgll1 (26–51) peptide probes were used; all the probes had carboxyfluorescein labels. Human TEAD4 (217–434) was used in the assay at a concentration of 350 nM and the peptide probe concentration was 25 nM. Disruptors were titrated at concentrations ranging from 0–150 μM to the probe-TEAD complex, and the mixtures were incubated at 25°C for 20 min. Then, polarization measurements were taken using a Victor3 (PerkinElmer) plate reader.

[2] = biological target: T2, TEAD4 (Homo sapiens, UniProt Q15561); assay: ThermoFluor assay, TEAD; type: binding; settings: protein 5 μM
T2 construct: ThermoFluor assays measuring the melting temperatures (Tm) of full-length TAZ or TEAD in the presence of ATA; strep (N, cleaved yes); made in house; host or cells: Escherichia coli BL21(DE3)pLysS
Procedure: (§2) To assess changes in protein stability, a dye-based thermal melting assay (ThermoFluor) was used. Purified protein (TAZ or TEAD4), ATA, and Protein Thermal Shift dye (ThermoFisher) were mixed in 96-well plates. The final concentration of the protein was 5 μM. The melting temperature was measured using LightCycler 480 (Roche). Each experiment was repeated at least twice.

[3] = test system: NIH3T3 cells; assay: LDH cytotoxicity assay, NIH3T3; type: cell-based; settings: NIH3T3, concentrations used in soft agar assay
Procedure: (§3) Soft agar colony growth assay was performed as previously described. The colonies were counted using Image-Pro Plus 7.0 software (Media Cybernetics). ATA cytotoxicity was assessed using the CyQUANT LDH Cytotoxicity Assay Kit (ThermoFisher) and was performed as per the manufacturer’s protocol.
NIH3T3 and HEK293 cells were treated with the indicated concentrations of ATA and the cytotoxicity was evaluated by calculating the amount of intracellular LDH released into the media. LDH absorbance after complete cell lysis is considered as 100% cytotoxicity and the absorbance after ATA treatment was normalized accordingly. (TIF) Click here for additional data file.

[4] = biological target: T3, TAZ (Homo sapiens, UniProt Q9GZV5); assay: ThermoFluor assay, TAZ; type: binding; settings: full-length TAZ, protein 5 μM
T3 construct: ThermoFluor assays measuring the melting temperatures (Tm) of full-length TAZ or TEAD in the presence of ATA; strep (C); made in house; host or cells: Escherichia coli BL21(DE3)pLysS
Procedure: as §2

[5] = test system: CYR61, CTGF, AMOTL2 and ANKRD1 transcripts in TC-expressing NIH3T3 cells; assay: qPCR of canonical TAZ target genes; type: cell-based, murine; settings: ATA 10 μM, 48 h
Procedure: NIH3T3 and HEK293 cells were obtained from the American Type Tissue Collection (ATCC, Manassas, VA) and cultured in DMEM containing 10% fetal bovine serum and penicillin/streptomycin. A TEAD dual luciferase reporter assay was performed as previously described. Cells were treated with vehicle control or ATA (10 μM) for 48 h before measuring the luciferase activity or processing the samples for RNA extraction. Each experiment was repeated at least 2-3 times. NIH3T3 cells were used. The extracted RNA (RNeasy Mini, Qiagen) from treated cells was either used for qPCR measurements or sent for bulk RNA-Seq. Sequencing runs were performed on an Illumina HiSeq 4000 sequencer (Genewiz). […] Paired end reads were aligned to the murine genome ([…]2 [27]. Raw count files were generated with featureCounts using a corresponding GTF reference. Differential gene expression analysis was performed with DESeq2 [29]. Transcripts were considered to be differentially expressed if the false discovery rate < 0.05 and Log2FC > 2. When performing differential gene expression for GSEA analysis, the Limma package was used (<5 CPM filtering) with t-scores used for rank statistics. GSEA plots and statistics were generated with FGSEA with custom gene sets. Raw sequencing reads and processed files have been deposited in the GEO repository (data will be uploaded upon manuscript acceptance). […]

[6] = biological target: T4, TAZ-TEAD complex (human TAZ (23-57) probe, human TEAD4 (217-434)) (Homo sapiens, UniProt Q15561); assay: TAZ-TEAD fluorescence polarization assay; type: binding; settings: TEAD4 350 nM, probe 25 nM
T4 construct: made in house
Procedure: as §1

[7] = test system: NIH3T3 cells expressing TAZ-CAMTA1; assay: Soft agar colony growth assay, TAZ-CAMTA1; type: cell-based
Procedure: as §3

[8] = test system: NIH3T3 expressing TAZ S89A; assay: Soft agar colony growth assay, TAZ S89A; type: cell-based
Procedure: as §3

T4 sequence (Q15561 217-434, one chain of several): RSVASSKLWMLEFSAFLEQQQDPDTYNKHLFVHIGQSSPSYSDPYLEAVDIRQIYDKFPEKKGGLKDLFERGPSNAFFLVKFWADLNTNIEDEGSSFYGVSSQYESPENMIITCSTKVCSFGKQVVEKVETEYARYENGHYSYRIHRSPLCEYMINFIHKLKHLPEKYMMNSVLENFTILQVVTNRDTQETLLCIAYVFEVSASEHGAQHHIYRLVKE
T2 sequence (Q15561 whole entry): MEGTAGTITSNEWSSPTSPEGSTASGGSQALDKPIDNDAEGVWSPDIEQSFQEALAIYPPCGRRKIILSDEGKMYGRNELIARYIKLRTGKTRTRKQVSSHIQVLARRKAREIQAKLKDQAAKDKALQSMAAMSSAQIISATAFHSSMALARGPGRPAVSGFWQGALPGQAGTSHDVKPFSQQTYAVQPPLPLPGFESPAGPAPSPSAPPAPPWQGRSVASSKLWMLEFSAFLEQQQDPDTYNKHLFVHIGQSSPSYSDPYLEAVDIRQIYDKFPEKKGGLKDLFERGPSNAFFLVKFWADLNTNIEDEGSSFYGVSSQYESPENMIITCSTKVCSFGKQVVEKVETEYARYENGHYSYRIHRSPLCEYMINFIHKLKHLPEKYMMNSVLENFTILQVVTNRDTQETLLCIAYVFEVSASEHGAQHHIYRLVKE
T3 sequence (Q9GZV5 whole entry): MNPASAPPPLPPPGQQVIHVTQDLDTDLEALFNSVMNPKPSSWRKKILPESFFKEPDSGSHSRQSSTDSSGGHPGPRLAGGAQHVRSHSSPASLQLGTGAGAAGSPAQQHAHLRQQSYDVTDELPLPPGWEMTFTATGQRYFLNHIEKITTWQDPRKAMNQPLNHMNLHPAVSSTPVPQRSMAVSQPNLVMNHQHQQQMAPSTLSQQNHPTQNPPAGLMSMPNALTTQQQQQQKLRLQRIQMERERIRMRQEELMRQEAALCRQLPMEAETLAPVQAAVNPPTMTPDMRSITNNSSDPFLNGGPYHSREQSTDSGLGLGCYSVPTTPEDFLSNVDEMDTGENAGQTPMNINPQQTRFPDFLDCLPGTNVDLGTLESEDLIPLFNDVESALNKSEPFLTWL
T1 sequence (Q15561 217-434, one chain of several): as the sequence (Q15561 217-434, one chain of several) above

SMILES: O=C(O)C1=CC(=C(c2ccc(O)c(C(=O)O)c2)c2ccc(O)c(C(=O)O)c2)C=CC1=O [ATA, aurintricarboxylic acid]
- disruption of the VGLL1-TEAD interaction (in words) [1]: ineffective
- shift in Tm in the ThermoFluor assay (in words) ([2]; TAZ or TEAD): increased the Tm
- melting temperature (Tm) of TEAD + ATA ([2]; full-length TEAD): 54.8 °C
- cytotoxicity, LDH release [3]: did not show cytotoxicity
- melting temperature (Tm) of TAZ + ATA [4]: 53.1 °C
- transcripts of canonical TAZ target genes (CYR61, CTGF, AMOTL2, ANKRD1) by qPCR [5]: suppression of these transcripts
- IC50 ([6]; acylated TEAD, read-out: IC50, TAZ-TEAD FP assay, acylated TEAD): 68 µM
- IC50 ([6]; deacylated TEAD, read-out: IC50, TAZ-TEAD FP assay, deacylated TEAD): 72 µM
- TC-driven soft agar colony growth [7]: dose-dependent reduction
- soft agar growth driven by TAZ S89A [8]: inhibited soft agar growth
